Data taken from paper PMC10272112 (Nature Communications, 2023).
Where “and” joins values, the source holds several entries; their conditions need not be identical. Identical values can stand only once. Like-named read-outs stand apart in the source and are kept apart here.

How the values were obtained:
HDAC3/NcoR2 complex = target: T1, HDAC3/NcoR2 complex (Homo sapiens, UniProt O15379); test: HDAC-Glo assay; format: biochemical; settings: for EC50: read-out: log EC50 from dose-dependent HDAC inhibition curves (converted); for HDCA3 relative activity: sheet S2b
T1 construct: purchased BPS Bioscience 50003
T1 sequence (O15379 whole entry): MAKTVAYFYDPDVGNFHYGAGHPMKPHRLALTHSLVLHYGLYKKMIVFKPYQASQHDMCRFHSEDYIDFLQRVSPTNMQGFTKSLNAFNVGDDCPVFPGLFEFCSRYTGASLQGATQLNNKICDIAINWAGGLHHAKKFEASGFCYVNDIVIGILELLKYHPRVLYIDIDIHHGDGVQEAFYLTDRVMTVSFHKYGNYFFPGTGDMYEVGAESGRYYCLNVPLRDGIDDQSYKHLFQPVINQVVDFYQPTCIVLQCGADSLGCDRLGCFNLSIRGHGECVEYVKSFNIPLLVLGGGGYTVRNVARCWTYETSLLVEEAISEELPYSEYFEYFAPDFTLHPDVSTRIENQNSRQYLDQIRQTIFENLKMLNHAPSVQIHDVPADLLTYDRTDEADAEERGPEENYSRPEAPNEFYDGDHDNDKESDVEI
T1 sequence (Q9Y618 395-489 partner limits assumed): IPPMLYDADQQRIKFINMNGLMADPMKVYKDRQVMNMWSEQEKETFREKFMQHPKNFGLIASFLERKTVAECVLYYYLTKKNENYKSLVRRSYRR
Method: To validate the inhibition of HDACs by LA and LM and elaborate on the structure-activity relationship (SAR) of enantiomers as well as oxidized versus reduced forms of the molecules, we performed enzyme activity assays for recombinant HDAC1,2,3,6,8 as well as FRET-based binding assay for recombinant HDAC10.
The experiments were performed according to ref. [48]. […] Drug dosing was performed with a D300e Digital Dispenser (Tecan). HDACs (7 ng/mL for HDAC1, 25 ng/mL for HDAC2, 200 ng/mL for HDAC3/Ncor2 complex, 100 ng/mL for HDAC6, 200 ng/mL for HDAC8) and inhibitors were incubated together at room temperature (RT) for 30 min. After the addition of the HDAC-Glo™ I/II reagent, plates were shaken (800 rpm orbital shaker, 30 s), centrifuged (300 g, 1 min), and incubated at RT for 30 min. Luminescence was detected with a CLARIOstar (BMG Labtech) plate reader.

[1] = target: HDACs (HDAC1, HDAC2, HDAC6); test: Chemoproteomic competition pulldown assay (HDAC panel); format: binding
Method: (§1) To identify proteins directly bound by lipoic acid, we employed a chemoproteomic competition assay. Briefly, (R/S)-LA was immobilized on sepharose beads via an amidation reaction to form an affinity matrix (abbreviated as iL; Fig. 1a). This affinity matrix can be incubated with cell lysate to pull down potential LA or LM target proteins and identify these targets via bottom-up proteomics. In a competition assay, free LA or LM were incubated with lysate at different concentrations before pulling down and quantifying target proteins. […] (Fig. 1b, see “Methods” for details). […] The lysate buffer used in this assay contains 1 mM DTT to mimic the intracellular reductive milieu and to reduce lipoic acid and LM. […] Additional competition assays performed in lung adenocarcinoma cell A549 lysate also identified HDAC1, HDAC2, and HDAC6 as targets (Supplementary Fig. 1b). Amongst the three cell lines tested, HDACs were the only confidently identified targets across the 1500–3000 proteins quantified in these assays. […] We validated the results by analogous pulldown competition assays using two other affinity matrices prepared via the immobilization of either the HDAC inhibitor Quisinostat (iQ) and an analog of the class IIa HDAC inhibitor Bürli’s 31[14] (iC)[12]. We have previously shown that these affinity matrices specifically bind to the active sites of HDACs and have used them for HDACi selectivity profiling. Indeed, binding of (R/S)-LA and (R/S)-LM to HDAC1, HDAC2, HDAC3, HDAC6, and, to a lesser extent, HDAC8 was confirmed in these assays (Supplementary Fig. 1c, d). No binding to class IIa HDACs or the recently discovered common HDAC inhibitor off-target MBLAC2 was observed (Supplementary Fig. 1e)[12]. […] This observation might reflect electrostatic repulsion between the HDAC10 active site gate-keeper glutamic acid residues[15],[16] and the terminal carboxylic acid of LA.
To assess the degree of protein depletion from lysates by the affinity matrix, a second pulldown (PDPD) with fresh beads was performed using the unbound protein fraction from the vehicle control flow through. The beads were washed (1 × 1 mL of lysis buffer without inhibitors and only 0.4% Igepal, 2 × 2 mL of lysis buffer without inhibitors and only 0.2% Igepal), and captured proteins were denatured with 8 M urea buffer, alkylated with 55 mM chloroacetamide and digested with Trypsin according to standard procedures. […]
For the competition assays, relative binding was calculated based on the protein intensity ratio to the DMSO control for every single inhibitor concentration. […] The correction factor is determined by calculating the ratio of the protein intensity of two consecutive pulldowns of the vehicle control sample[13]. […]

HDAC8 = target: T2, HDAC8 (Homo sapiens, UniProt Q9BY41); test: Chemoproteomic competition pulldown assay; format: binding; design: endogenous in cells; host or cells: SW620 lysate; settings: iQ; for Kd: SW620, read-out: pKdapp (converted); for relative binding vs DMSO: SW620 lysate
T2 sequence (Q9BY41 1-377): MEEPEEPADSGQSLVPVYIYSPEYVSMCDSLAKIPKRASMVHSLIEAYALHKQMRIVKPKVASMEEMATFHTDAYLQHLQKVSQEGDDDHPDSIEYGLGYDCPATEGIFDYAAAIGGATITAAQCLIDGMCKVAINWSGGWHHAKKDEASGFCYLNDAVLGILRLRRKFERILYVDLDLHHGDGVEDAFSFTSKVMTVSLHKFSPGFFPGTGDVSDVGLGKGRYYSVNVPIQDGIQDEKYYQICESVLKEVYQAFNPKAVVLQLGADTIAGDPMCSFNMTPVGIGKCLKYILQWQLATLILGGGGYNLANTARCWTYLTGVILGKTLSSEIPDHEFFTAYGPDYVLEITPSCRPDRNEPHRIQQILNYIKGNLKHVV
Method: as §1
To assess the degree of protein depletion from lysates by the affinity matrix, a second pulldown (PDPD) with fresh beads was performed using the unbound protein fraction from the vehicle control flow through. The beads were washed (1 × 1 mL of lysis buffer without inhibitors and only 0.4% Igepal, 2 × 2 mL of lysis buffer without inhibitors and only 0.2% Igepal), and captured proteins were denatured with 8 M urea buffer, alkylated with 55 mM chloroacetamide and digested with Trypsin according to standard procedures. The resulting peptides were desalted on a C18 filter plate (Sep-Pak® tC18 µElution Plate, Waters), vacuum dried, and stored at −20 °C until LC–MSMS measurement.
For the competition assays, relative binding was calculated based on the protein intensity ratio to the DMSO control for every single inhibitor concentration. EC50 values were derived from a four-parameter log-logistic regression with variable slope (constrain: bottom > 0). The obtained EC50 values were multiplied with a protein-dependent correction factor (cf), resulting in the apparent Kd value (Kd^app). The correction factor is determined by calculating the ratio of the protein intensity of two consecutive pulldowns of the vehicle control sample[13]. Targets of the inhibitors were annotated manually according to published procedures[12],[46],[47]. […] Additionally, the number of unique peptides and MSMS counts per condition were taken into account. Positive target binding across several independent experiments performed with different cell lysates further substantiated our confidence for a true positive drug-target binding event.

[2] = iL, SW620 lysate, 1 mM DTT, range over HDAC1, HDAC2, HDAC6, read-out: affinities (Kd app)

| Structure (SMILES) | EC50 (HDAC3/NcoR2 complex) [µM] | HDCA3 relative activity (HDAC3/NcoR2 complex; log conc -3.30103) | HDCA3 relative activity (HDAC3/NcoR2 complex; log conc -3.82945) | HDCA3 relative activity (HDAC3/NcoR2 complex; log conc -4.35788) | HDCA3 relative activity (HDAC3/NcoR2 complex; log conc -4.88629) | HDCA3 relative activity (HDAC3/NcoR2 complex; log conc -5.41477) | HDCA3 relative activity (HDAC3/NcoR2 complex; log conc -5.94309) | HDCA3 relative activity (HDAC3/NcoR2 complex; log conc -6.47756) | HDCA3 relative activity (HDAC3/NcoR2 complex; log conc -6.87615) | Kd [1, 2] [µM] | Kd (HDAC8) [µM] | relative binding vs DMSO (HDAC8; log10 M -3.52288) | relative binding vs DMSO (HDAC8; log10 M -4) | relative binding vs DMSO (HDAC8; log10 M -4.52288) | relative binding vs DMSO (HDAC8; log10 M -5) | relative binding vs DMSO (HDAC8; log10 M -5.52288) | relative binding vs DMSO (HDAC8; log10 M -6) | relative binding vs DMSO (HDAC8; log10 M -6.52288) | relative binding vs DMSO (HDAC8; log10 M -7) | other results |
| --- | --- | --- | --- | --- | --- | --- | --- | --- | --- | --- | --- | --- | --- | --- | --- | --- | --- | --- | --- | --- |
| O=C(O)CCCCC1CCSS1 (racemic) [(R/S)-LA, (R/S)-lipoic acid] | 41.7 | 4.168 and 4.13 and 4.176 | 8.909 and 8.94 and 8.919 | 25.3559 and 24.0859 and 24.4605 | 55.6369 and 56.3521 and 62.4157 | 100.947 and 102.17 and 103.057 | 105.476 and 106.045 and 106.401 | 89.5862 and 90.873 and 93.4553 | 104.127 and 108.406 and 102.786 | 3 to 33 | 39.8 | 0.618 | 0.6642 | 1.003 | 1.048 | 1.024 | 1.06 | 0.9713 | 1.01 | HDAC enzymatic activity (normalized luminescence) (HDAC3/NcoR2 complex; 0.5 M TCEP, log10 M -3.30103, 3 technical replicates): 7.256 and 7.282 and 7.339; HDAC enzymatic activity (normalized luminescence) (HDAC3/NcoR2 complex; 0.5 M TCEP, log10 M -3.82945, 3 technical replicates): 17.0785 and 16.9479 and 17.22; HDAC enzymatic activity (normalized luminescence) (HDAC3/NcoR2 complex; 0.5 M TCEP, log10 M -4.35788, 3 technical replicates): 49.3596 and 49.0858 and 50.0362; HDAC enzymatic activity (normalized luminescence) (HDAC3/NcoR2 complex; 0.5 M TCEP, log10 M -4.88629, 3 technical replicates): 95.5948 and 97.1564 and 98.2162; HDAC enzymatic activity (normalized luminescence) (HDAC3/NcoR2 complex; 0.5 M TCEP, log10 M -5.41477, 3 technical replicates): 101.96 and 103.73 and 105.005; HDAC enzymatic activity (normalized luminescence) (HDAC3/NcoR2 complex; 0.5 M TCEP, log10 M -5.94309, 3 technical replicates): 91.2378 and 92.4271 and 93.0815; HDAC enzymatic activity (normalized luminescence) (HDAC3/NcoR2 complex; 0.5 M TCEP, log10 M -6.47756, 3 technical replicates): 89.2879 and 93.1305 and 94.7241; HDAC enzymatic activity (normalized luminescence) (HDAC3/NcoR2 complex; 0.5 M TCEP, log10 M -6.87615, 3 technical replicates): 90.3991 and 92.4306 and 92.5457; HDAC enzymatic activity (normalized luminescence) (HDAC3/NcoR2 complex; no TCEP, log10 M -3.30103, 3 technical replicates): 64.3889 and 65.753 and 66.6157; HDAC enzymatic activity (normalized luminescence) (HDAC3/NcoR2 complex; no TCEP, log10 M -3.82945, 3 technical replicates): 67.3361 and 68.514 and 68.6262; HDAC enzymatic activity (normalized luminescence) (HDAC3/NcoR2 complex; no TCEP, log10 M -4.35788, 3 technical replicates): 79.5043 and 81.2871 and 81.6059; HDAC enzymatic activity (normalized luminescence) (HDAC3/NcoR2 complex; no TCEP, log10 M -4.88629, 3 technical replicates): 87.8136 and 89.4197 and 90.6707; HDAC enzymatic activity (normalized luminescence) (HDAC3/NcoR2 complex; no TCEP, log10 M -5.41477, 3 technical replicates): 88.1589 and 90.4647 and 92.122; HDAC enzymatic activity (normalized luminescence) (HDAC3/NcoR2 complex; no TCEP, log10 M -5.94309, 3 technical replicates): 88.1501 and 88.386 and 90.7058; HDAC enzymatic activity (normalized luminescence) (HDAC3/NcoR2 complex; no TCEP, log10 M -6.47756, 3 technical replicates): 88.6188 and 88.5508 and 90.3108; HDAC enzymatic activity (normalized luminescence) (HDAC3/NcoR2 complex; no TCEP, log10 M -6.87615, 3 technical replicates): 97.6646 and 98.0479 and 97.5948; EC50 ([1]; peer review response, read-out: EC50 in chemoproteomic competition assays): 5 to 30 µM; Kd ([1]; peer review response, read-out: potency of target binding (Kd)): 5 to 30 µM |
| NC(=O)CCCCC1CCSS1 (racemic) [(R/S)-LM, (R/S)-lipoamide] | 15.6 | 69.6623 and 70.4079 and 69.1097 | 75.2589 and 76.6842 and 75.5671 | 87.3214 and 88.0897 and 87.877 | 91.0887 and 91.1636 and 92.3406 | 88.6242 and 91.0601 and 91.2237 | 95.2751 and 94.3928 and 97.2335 | 90.1183 and 90.3135 and 93.1985 | 107.529 and 106.868 and 106.288 | 3 to 33 | 15.8 | 0.4707 | 0.4645 | 0.802 | 1.001 | 1.106 | 1.189 | 0.8797 | 0.9776 |  |
